Source: ChEMBL document CHEMBL1201862, “PubChem BioAssay data set” (2004)
Active and inactive are the calls of the source.

Key:
[1] = target: Glyceraldehyde-3-phosphate dehydrogenase (Homo sapiens, UniProt P04406)
[2] = target: Tyrosine-protein phosphatase non-receptor type 12 (Homo sapiens, UniProt Q05209); experiment: SAR Selectivity Analysis of small molecule inhibitors of PEST using pCAP in a fluorescence assay. [Related pubchem assays (depositor defined):AID1779, AID1784, AID2135]; assay type: functional
Chain of Tyrosine-protein phosphatase non-receptor type 12 (Q05209 whole entry): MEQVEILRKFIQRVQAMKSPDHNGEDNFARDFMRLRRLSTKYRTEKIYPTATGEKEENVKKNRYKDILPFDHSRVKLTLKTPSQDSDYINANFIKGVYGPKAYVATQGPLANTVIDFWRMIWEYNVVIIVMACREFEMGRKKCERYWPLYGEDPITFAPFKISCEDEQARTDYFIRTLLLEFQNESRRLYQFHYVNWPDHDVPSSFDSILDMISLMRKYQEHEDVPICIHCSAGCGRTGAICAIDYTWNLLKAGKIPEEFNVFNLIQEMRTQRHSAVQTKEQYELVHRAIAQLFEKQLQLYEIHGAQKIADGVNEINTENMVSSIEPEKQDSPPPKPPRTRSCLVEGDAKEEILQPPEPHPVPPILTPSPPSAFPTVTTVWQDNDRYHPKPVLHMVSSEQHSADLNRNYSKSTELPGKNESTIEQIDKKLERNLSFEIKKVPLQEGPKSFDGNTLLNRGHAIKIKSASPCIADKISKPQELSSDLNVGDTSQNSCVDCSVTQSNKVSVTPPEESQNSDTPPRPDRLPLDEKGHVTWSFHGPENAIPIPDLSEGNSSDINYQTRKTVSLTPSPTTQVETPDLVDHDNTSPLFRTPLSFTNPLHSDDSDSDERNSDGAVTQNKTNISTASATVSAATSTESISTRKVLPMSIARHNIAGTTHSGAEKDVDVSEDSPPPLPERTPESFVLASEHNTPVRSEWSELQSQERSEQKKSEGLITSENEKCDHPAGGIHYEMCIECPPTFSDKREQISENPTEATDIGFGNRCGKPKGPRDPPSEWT

[3] = target: T1, Tyrosine-protein phosphatase non-receptor type 22 (Homo sapiens, UniProt Q9Y2R2); experiment: SAR LYP1 Fluorescent Assay using OMFP substrate for In Vitro dose response studies - Set 3. [Related pubchem assays (depositor defined):AID1779, AID1784, AID2140, AID2686]; assay type: functional
T1 sequence (Q9Y2R2 whole entry): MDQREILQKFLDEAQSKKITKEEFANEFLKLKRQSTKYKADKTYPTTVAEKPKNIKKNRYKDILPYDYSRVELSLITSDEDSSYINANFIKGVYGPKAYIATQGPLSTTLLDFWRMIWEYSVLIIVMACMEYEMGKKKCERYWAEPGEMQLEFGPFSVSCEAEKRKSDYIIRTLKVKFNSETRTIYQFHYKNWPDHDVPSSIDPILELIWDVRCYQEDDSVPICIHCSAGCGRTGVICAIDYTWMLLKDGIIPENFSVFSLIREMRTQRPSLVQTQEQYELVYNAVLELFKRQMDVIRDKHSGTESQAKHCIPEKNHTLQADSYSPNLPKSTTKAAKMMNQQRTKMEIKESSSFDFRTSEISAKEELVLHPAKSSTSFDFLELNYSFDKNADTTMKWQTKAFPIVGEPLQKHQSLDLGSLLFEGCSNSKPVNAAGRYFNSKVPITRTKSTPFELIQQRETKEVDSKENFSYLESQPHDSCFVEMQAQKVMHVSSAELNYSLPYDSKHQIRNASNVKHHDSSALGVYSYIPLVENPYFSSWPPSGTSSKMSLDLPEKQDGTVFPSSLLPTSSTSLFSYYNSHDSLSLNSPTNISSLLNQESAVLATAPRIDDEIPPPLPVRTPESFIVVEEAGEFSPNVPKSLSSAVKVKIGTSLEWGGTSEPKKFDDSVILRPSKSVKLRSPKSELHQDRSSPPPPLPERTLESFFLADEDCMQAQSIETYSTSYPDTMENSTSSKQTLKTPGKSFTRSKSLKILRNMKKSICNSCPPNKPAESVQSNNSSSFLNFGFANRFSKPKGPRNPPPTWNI

[4] = target: T1, Tyrosine-protein phosphatase non-receptor type 22; experiment: LYP (PTPN22) phosphatase inhibitor potency, SAR follow-up, biochemical, pCAP fluorogenic substrate, fluorescence, set 3 (AID 449727); assay type: functional
[5] = target: T2, Aminopeptidase N (Plasmodium falciparum FcB1/Columbia, UniProt O96935); experiment: P. falciparum M1AAP inhibitors, biochemical, fluorogenic H-Leu-NHMec substrate, 1536-well (AID 1445); design: species or system Plasmodium falciparum 3D7, 3D7
T2 sequence (O96935 whole entry): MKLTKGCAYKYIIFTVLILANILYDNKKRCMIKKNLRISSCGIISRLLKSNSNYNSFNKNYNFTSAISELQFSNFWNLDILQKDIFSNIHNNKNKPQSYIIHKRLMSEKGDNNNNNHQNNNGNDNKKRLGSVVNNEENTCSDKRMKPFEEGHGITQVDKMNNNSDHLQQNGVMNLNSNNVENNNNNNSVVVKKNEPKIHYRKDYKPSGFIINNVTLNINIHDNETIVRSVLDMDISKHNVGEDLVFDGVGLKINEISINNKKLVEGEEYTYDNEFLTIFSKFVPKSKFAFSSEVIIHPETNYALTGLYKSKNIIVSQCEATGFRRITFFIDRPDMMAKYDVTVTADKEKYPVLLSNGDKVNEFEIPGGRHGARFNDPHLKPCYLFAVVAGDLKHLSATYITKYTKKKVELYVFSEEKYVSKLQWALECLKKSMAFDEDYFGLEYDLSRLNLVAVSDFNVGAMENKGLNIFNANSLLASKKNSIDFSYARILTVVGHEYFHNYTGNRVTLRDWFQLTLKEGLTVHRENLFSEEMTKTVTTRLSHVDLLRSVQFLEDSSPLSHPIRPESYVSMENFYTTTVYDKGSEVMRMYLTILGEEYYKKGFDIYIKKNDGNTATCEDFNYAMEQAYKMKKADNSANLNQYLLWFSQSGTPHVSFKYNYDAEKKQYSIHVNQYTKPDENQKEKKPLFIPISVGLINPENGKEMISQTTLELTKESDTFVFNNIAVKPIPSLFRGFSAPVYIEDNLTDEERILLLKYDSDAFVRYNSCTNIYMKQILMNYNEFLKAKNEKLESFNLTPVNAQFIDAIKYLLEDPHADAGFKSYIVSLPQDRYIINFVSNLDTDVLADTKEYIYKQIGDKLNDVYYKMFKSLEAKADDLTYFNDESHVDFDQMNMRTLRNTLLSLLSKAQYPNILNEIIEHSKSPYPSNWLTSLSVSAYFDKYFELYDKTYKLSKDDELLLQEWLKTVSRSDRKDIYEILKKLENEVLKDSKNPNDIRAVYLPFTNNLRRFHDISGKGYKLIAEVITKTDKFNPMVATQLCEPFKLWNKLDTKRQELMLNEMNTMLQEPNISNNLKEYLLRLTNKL

[6] = target: Guanyl-specific ribonuclease T1 (Aspergillus oryzae (strain ATCC 42149 / RIB 40), UniProt P00651); experiment: RNase T1 inhibitors, dose response, counter-screen for TPT1 inhibitor project, biochemical, fluorescence polarization, 1536-well (AID 2167)
Chain of Guanyl-specific ribonuclease T1 (P00651 whole entry): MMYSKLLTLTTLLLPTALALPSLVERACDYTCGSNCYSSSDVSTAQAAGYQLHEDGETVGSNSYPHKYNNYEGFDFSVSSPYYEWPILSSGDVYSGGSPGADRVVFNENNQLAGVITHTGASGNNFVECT

[7] = target: Large T antigen (Simian virus 40, UniProt P03070); assay type: functional, Betapolyomavirus macacae;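 further: Confirmatory-stage PubChem screen for compounds that inhibit SV40 T antigen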
[8] = target: Likely tRNA 2'-phosphotransferase (Candida albicans (strain SC5314 / ATCC MYA-2876) (Yeast), UniProt Q5A7N4); experiment: TPT1 tRNA phosphotransferase inhibitors, dose response, biochemical, fluorescence polarization (AID 2160)
Chain of Likely tRNA 2'-phosphotransferase (Q5A7N4 whole entry): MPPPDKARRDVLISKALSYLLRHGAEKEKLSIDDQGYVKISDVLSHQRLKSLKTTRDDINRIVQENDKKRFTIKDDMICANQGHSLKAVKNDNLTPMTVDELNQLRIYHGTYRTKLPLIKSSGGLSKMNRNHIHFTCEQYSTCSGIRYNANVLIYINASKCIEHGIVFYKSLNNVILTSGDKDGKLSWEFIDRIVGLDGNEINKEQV

[9] = target: T3, Calpain-2 catalytic subunit (Sus scrofa, UniProt P43367); experiment: pig calpain II inhibitor potency, dose response, biochemical, fluorogenic peptide substrate (AID 1420); assay type: functional
T3 sequence (P43367 whole entry): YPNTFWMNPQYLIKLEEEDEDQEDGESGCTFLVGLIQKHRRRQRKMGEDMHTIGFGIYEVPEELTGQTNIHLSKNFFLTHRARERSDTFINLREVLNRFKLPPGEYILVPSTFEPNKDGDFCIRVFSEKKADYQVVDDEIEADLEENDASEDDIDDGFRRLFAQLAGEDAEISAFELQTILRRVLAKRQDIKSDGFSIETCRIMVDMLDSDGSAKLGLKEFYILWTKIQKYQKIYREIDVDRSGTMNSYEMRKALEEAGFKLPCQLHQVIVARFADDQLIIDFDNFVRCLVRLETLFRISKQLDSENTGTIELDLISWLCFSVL

[10] = target: Bifunctional protein GlmU (Mycobacterium tuberculosis, UniProt P9WMN3); experiment: Inhibitors of Mycobacterial Glucosamine-1-phosphate acetyl transferase (GlmU). Secondary screen.; design: species or system Mycobacterium tuberculosis H37Rv
Chain of Bifunctional protein GlmU (P9WMN3 whole entry): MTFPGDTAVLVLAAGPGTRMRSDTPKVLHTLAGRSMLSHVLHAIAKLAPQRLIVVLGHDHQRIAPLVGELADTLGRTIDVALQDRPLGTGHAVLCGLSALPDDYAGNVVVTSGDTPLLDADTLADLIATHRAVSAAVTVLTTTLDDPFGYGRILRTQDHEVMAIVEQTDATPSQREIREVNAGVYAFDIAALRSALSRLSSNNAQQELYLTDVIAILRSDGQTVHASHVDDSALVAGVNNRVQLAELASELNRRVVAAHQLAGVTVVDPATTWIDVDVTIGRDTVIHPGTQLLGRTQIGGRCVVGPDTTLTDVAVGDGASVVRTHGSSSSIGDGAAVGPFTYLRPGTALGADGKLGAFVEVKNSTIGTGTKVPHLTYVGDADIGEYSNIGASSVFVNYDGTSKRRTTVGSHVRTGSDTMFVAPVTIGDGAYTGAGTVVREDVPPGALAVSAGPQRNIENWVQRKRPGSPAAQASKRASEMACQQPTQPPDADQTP

[11] = target: Induced myeloid leukemia cell differentiation protein Mcl-1 (Homo sapiens, UniProt Q07820); assay type: functional
Chain of Induced myeloid leukemia cell differentiation protein Mcl-1 (Q07820 whole entry): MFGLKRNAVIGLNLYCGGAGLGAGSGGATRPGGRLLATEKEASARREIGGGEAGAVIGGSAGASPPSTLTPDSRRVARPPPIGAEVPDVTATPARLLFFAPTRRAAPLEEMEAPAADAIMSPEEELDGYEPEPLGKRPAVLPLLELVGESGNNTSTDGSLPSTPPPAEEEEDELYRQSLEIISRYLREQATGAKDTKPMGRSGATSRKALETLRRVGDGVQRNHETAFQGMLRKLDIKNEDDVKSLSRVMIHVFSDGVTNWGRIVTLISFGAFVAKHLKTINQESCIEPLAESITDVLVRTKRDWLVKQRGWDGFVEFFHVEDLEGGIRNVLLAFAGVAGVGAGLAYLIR

[12] = tested on: HeLa; experiment: HeLa cell cytotoxicity, dose response, cytotoxicity control, 24 h, cherry-picked samples (AID 504726); assay type: functional, cell-based; conditions: Homo sapiens;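 further: potency for cytotoxicity as loss of luminescence signal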
[13] = target: ORF 73 (Human herpesvirus 8, UniProt O40947); experiment: inhibitors of C-LANA binding to LBS DNA, dose response, biochemical, fluorescence polarization, cherry-picked samples (AID 504725); design: species or system Human gammaherpesvirus 8;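 further: fluorescence polarization of a labeled DNA duplex reporting LANA DNA binding; potency is for inhibitors that block LANA binding to the DNA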
Chain of ORF 73 (O40947 whole entry): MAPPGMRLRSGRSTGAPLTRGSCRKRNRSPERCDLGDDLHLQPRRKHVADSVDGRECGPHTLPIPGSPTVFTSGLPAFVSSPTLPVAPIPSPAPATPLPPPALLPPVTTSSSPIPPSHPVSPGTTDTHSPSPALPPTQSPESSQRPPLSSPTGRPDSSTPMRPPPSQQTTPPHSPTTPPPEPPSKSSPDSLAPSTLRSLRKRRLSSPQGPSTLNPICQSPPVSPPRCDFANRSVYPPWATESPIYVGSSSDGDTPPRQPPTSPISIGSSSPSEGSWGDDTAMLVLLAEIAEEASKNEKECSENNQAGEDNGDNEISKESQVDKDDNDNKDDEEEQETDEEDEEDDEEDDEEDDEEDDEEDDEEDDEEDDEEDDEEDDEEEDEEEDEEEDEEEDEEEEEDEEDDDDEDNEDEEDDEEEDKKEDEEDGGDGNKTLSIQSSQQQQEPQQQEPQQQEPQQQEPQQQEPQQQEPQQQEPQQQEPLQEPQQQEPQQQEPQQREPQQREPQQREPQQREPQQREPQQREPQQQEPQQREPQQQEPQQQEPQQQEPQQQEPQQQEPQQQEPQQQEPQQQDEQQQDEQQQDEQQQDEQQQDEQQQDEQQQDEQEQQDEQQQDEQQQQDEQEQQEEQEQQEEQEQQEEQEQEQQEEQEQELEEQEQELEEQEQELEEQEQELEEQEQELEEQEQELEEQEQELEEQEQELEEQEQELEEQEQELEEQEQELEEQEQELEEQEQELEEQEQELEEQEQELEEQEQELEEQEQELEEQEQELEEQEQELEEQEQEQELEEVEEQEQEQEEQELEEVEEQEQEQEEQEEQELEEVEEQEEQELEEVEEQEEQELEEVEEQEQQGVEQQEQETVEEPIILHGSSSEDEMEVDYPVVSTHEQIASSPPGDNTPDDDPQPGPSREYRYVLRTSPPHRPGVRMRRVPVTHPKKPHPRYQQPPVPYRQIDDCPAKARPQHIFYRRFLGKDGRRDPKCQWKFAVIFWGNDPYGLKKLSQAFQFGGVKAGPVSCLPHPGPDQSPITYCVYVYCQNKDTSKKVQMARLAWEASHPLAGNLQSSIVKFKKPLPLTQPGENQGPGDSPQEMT

[14] = target: Intestinal-type alkaline phosphatase (Homo sapiens, UniProt P09923); experiment: activation of human intestinal alkaline phosphatase – biochemical, dose response (AID 488873); assay type: functional
[15] = target: Intestinal-type alkaline phosphatase (Mus musculus, UniProt P24822); experiment: mouse intestinal alkaline phosphatase activators, dose response, biochemical, luminescence, uHTS hits (AID 488783); assay type: functional
Chain of Intestinal-type alkaline phosphatase (Mus musculus, UniProt P24822) (P24822 whole entry): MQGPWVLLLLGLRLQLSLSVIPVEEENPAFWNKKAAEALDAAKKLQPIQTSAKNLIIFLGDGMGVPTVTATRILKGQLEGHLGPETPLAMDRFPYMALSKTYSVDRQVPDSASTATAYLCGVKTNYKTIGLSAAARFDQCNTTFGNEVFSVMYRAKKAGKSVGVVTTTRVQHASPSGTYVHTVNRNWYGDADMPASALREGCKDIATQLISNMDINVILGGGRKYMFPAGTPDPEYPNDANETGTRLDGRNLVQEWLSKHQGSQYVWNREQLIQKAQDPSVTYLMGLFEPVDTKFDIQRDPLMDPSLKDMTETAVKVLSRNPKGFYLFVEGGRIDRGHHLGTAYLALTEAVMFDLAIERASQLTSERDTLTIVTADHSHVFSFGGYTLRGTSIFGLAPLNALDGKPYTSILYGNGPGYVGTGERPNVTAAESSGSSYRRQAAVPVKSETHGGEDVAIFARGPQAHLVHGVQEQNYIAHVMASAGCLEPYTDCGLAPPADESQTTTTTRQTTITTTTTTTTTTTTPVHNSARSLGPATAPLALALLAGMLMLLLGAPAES

[16] = target: T4, Alkaline phosphatase, tissue-nonspecific isozyme (Homo sapiens, UniProt P05186); experiment: TNAP enzyme activators, dose response, selectivity assay for mouse IAP activator project, biochemical, TNAP isozyme, mouse IAP uHTS hits (AID 488880); assay type: functional
T4 sequence (P05186 whole entry): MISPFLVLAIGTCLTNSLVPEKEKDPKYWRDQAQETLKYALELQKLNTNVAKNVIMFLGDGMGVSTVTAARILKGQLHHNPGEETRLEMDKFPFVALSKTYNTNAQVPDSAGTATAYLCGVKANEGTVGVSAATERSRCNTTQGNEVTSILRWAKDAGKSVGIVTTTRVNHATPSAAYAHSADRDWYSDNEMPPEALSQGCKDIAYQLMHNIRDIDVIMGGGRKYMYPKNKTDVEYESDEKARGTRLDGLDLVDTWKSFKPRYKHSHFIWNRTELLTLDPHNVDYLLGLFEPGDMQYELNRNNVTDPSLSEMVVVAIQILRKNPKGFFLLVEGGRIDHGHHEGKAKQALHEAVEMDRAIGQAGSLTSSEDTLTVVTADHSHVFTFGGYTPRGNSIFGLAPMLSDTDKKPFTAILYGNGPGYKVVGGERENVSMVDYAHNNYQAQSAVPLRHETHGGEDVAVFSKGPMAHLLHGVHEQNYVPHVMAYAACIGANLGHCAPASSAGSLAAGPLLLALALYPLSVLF

[17] = target: T5, Cysteine protease ATG4B (Homo sapiens, UniProt Q9Y4P1); assay type: functional;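 further: Fluorescence-based dose-response confirmation assay measuring inhibition of ATG4B activity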
T5 sequence (Q9Y4P1 whole entry): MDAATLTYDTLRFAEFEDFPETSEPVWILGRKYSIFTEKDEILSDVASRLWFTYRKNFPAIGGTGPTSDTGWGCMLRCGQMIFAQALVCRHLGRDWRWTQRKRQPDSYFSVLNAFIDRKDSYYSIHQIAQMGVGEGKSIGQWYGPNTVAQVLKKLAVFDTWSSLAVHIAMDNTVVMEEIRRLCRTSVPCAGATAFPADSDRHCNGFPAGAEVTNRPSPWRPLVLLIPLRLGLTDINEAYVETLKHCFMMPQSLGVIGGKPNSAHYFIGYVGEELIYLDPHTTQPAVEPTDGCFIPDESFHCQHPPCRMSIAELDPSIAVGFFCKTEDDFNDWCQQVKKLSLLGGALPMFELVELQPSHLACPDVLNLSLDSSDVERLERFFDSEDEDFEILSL

[18] = target: Phospholipase A2 (Homo sapiens, UniProt P04054); assay type: functional;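 further: confirmatory dose-response counterscreen on phospholipase A2, testing hits that came from an ultra-high-throughput screen for ATG4B inhibitors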
Chain of Phospholipase A2 (P04054 whole entry): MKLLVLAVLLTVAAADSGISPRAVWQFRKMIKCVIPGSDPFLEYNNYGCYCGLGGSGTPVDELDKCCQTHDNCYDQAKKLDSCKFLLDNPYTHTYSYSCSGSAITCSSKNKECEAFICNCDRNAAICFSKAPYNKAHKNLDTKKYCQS

[19] = target: Trypsin (Sus scrofa, UniProt P00761); experiment: porcine trypsin inhibitors, dose response, selectivity assay for Rce1 protease inhibitor project, biochemical, quenched peptide fluorescence, cherry-pick (AID 488789)
Chain of Trypsin (P00761 whole entry): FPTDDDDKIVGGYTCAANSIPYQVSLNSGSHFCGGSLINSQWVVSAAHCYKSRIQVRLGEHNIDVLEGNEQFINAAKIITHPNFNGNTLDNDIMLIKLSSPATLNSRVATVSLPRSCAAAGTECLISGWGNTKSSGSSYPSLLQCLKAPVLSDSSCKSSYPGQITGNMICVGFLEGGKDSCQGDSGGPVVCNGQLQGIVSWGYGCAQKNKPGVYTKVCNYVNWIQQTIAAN

[20] = target: T6, Mannose-6-phosphate isomerase (Homo sapiens, UniProt P34949); experiment: PMI enzyme inhibitors, confirmation, biochemical, fluorescence intensity (AID 1535)
T6 sequence (P34949 whole entry): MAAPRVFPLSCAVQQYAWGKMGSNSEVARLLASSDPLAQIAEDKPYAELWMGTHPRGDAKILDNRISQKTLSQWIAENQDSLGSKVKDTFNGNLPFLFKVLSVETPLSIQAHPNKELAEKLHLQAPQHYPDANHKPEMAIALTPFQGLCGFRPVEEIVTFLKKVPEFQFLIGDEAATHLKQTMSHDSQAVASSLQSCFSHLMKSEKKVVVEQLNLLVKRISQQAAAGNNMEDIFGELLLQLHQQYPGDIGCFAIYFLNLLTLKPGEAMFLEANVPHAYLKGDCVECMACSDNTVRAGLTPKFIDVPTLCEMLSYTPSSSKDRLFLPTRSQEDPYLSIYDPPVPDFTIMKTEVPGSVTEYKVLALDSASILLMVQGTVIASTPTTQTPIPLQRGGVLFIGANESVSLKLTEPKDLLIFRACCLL

[21] = target: T7, Hexokinase (Trypanosoma brucei, UniProt Q38C41); experiment: Confirmation assay for inhibitors of Trypanosoma brucei hexokinase 1-Analogue-first series. [Related pubchem assays (depositor defined):AID1430, AID1632, AID2516, AID2560, AID2579, AID2600, AID449725, AID492951]; assay type: functional
T7 sequence (Q38C41 whole entry): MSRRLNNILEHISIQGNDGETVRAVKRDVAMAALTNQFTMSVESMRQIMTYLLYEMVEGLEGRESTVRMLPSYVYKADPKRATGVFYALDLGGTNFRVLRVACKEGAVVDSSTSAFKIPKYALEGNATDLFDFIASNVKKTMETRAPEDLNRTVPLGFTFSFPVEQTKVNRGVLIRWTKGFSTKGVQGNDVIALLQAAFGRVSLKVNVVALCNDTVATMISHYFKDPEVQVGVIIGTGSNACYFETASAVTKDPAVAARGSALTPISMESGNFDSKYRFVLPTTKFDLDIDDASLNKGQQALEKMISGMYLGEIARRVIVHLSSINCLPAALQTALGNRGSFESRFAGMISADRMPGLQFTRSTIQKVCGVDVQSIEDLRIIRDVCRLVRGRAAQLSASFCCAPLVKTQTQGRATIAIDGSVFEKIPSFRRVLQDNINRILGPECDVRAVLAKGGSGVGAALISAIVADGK

[22] = target: Phosphomannomutase 2 (Homo sapiens, UniProt O15305); experiment: Counter screen SAR assay for PMM2 inhibitors via a fluorescence intensity assay. [Related pubchem assays (depositor defined):AID1545, AID1574]
Chain of Phosphomannomutase 2 (O15305 whole entry): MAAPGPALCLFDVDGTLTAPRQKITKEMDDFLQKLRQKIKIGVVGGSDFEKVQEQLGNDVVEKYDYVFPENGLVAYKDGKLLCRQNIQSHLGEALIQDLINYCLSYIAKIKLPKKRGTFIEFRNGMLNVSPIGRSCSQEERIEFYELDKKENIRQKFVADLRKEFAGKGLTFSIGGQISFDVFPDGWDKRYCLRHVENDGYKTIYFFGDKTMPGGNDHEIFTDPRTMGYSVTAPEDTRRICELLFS

[23] = target: Phosphoethanolamine/phosphocholine phosphatase (Homo sapiens, UniProt Q8TCT1); experiment: SAR assay for compounds that inhibit PHOSPHO1. [Related pubchem assays (depositor defined):AID1545, AID1565, AID1574]
Chain of Phosphoethanolamine/phosphocholine phosphatase (Q8TCT1 whole entry): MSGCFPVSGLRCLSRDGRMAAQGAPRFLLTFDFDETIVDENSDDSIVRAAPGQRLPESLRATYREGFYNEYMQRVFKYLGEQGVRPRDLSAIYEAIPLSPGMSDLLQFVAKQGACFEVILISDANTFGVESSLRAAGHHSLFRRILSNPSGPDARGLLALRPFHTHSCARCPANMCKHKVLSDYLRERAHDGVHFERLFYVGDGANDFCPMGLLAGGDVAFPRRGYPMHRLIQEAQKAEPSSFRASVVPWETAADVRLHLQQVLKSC

Chain of Glyceraldehyde-3-phosphate dehydrogenase (P04406 whole entry): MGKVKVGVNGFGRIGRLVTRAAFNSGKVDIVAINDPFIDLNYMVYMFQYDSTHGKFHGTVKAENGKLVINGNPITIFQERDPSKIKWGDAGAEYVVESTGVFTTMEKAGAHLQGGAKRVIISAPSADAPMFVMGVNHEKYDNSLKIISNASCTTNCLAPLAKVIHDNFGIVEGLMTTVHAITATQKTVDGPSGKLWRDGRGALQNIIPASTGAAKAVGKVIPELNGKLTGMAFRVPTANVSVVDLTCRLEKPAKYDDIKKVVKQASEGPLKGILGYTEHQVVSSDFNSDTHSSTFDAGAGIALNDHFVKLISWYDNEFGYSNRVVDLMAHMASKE

For O=C(O)c1ccc(-c2ccc(/C=C3\SC(=S)N(c4ccc([N+](=O)[O-])cc4)C3=O)o2)cc1, the IC50 [1] was > 100 µM (not active), the IC50 [2] was 0.216 µM (active) and the IC50 [3] was 0.821 µM (active). For the same molecule, the IC50 [4] was 0.602 µM (active).

In the case of O=C1/C(=C/C=C/c2ccco2)SC(=S)N1NS(=O)(=O)c1ccccc1, the IC50 [5] is reported as 22.6 µM (active), the IC50 [6] is reported as 18.5 µM (not active) and the IC50 [7] is reported as 25.4 µM (active). The IC50 [8] was 20.8 µM (not active), the IC50 [9] was 8.28 µM (not active) and the IC50 [10] was 49.6 µM (active). For the same molecule, the IC50 [11] was 3.1 µM (active), the AC50 [12] was > 350 µM (inactive) and the AC50 [13] was 177 µM (active). The EC50 [14] was > 100 µM (inactive), the EC50 [15] was 3.13 µM (active) and the EC50 [16] was > 100 µM (inactive). The IC50 [17] was 7.13 µM (active) and the IC50 [18] was 13 µM (active).

CCn1cc(C(=O)NCCO)c(=O)c2cc(F)c(N3CCN(C)CC3)cc21 was tested, and the AC50 [19] was 39.2 µM (active).

In the case of O=c1c2ccc([N+](=O)[O-])cc2sn1-c1ccccc1, the IC50 [20] is reported as > 50 µM (inactive), the IC50 [21] is reported as 11.6 µM (active) and the IC50 [22] is reported as > 100 µM (inactive). The IC50 [23] was 4.23 µM (inactive).
